Source: PMC10939250 (PLOS Biology, 2024)
Residues, ends and D or L forms follow the SMILES beside them.

Key:
[1] = tested on: SARS-CoV-2 WA1 virus
[2] = mouse, in vivo
[3] = tested on: Jurkat cells

SMILES: CC[C@H](C)[C@H](NC(=O)[C@H](CC(C)C)NC(=O)[C@@H](NC(=O)CNC(=O)[C@@H](NC(=O)[C@H](CC(=O)O)NC(=O)[C@H](CC(=O)O)NC(=O)[C@H](CO)NC(=O)[C@@H](NC(=O)[C@H](Cc1ccccc1)NC(=O)[C@H](CO)NC(=O)[C@H](Cc1ccc(O)cc1)NC(=O)[C@H](CCSC)NC(=O)[C@H](CCC(N)=O)NC(=O)[C@@H]1CCCN1C(=O)[C@@H]1CCCN1C(=O)[C@H](CCCNC(=N)N)NC(=O)[C@H](CCCNC(=N)N)NC(=O)[C@H](CCCNC(=N)N)NC(=O)[C@H](CCC(N)=O)NC(=O)[C@H](CCCNC(=N)N)NC(=O)[C@H](CCCNC(=N)N)NC(=O)[C@H](CCCCN)NC(=O)[C@H](CCCCN)NC(=O)[C@H](CCCNC(=N)N)NC(=O)CN)C(C)C)[C@@H](C)O)[C@@H](C)O)C(=O)N[C@H](C(=O)N[C@@H](CC(N)=O)C(=O)N[C@@H](CO)C(=O)N[C@H](C(=O)N[C@@H](CC(C)C)C(=O)O)C(C)C)C(C)C [iPep-SARS2-E] (H-GRKKRRQRRRPPQMYSFVSDDTGTLIVNSVL-OH)
- IC50 [1]: ~400 nM
- Body weight and inflammation markers Cxcl12 and C5a [2]: did not find any significant differences
- Cellular toxicity (healthy, apoptotic, dead/necrotic cells) [3]: does not cause cellular toxicity
